Measurements taken from patent publication US5998654A, “Retinoic acid receptor antagonist compounds and methods” (Ligand Pharmaceuticals Incorporated, priority 1997, dated 1999).

Assays:
RARγ [1] = target: T1, RARγ (Homo sapiens, UniProt P13631); assay: RAR binding, RARγ; details: Kd from IC50 by Cheng-Prussof equation
T1 sequence (P13631 1-454): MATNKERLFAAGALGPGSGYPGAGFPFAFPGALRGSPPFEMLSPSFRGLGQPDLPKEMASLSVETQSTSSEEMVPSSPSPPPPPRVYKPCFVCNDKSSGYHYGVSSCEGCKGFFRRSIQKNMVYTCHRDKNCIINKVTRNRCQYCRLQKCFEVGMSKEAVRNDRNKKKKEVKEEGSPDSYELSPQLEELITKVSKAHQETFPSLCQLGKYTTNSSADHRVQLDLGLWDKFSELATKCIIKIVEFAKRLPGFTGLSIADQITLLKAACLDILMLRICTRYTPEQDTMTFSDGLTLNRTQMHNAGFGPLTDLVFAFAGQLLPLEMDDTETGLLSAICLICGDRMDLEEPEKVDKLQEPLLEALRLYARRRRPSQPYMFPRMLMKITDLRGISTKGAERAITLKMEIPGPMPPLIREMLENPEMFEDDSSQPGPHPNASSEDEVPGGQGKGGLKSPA
Procedure: Non-specific binding was defined as that binding remaining in the presence of 500 nM of the appropriate unlabelled compound. At the end of the incubation period, bound from free ligand were separated. The amount of bound tritiated retinoids was determined by liquid scintillation counting of an aliquot (700 μL) of the supernatant fluid or the hydroxylapatite pellet.
After correcting for non-specific binding, IC50 values were determined. […] The IC50 value was determined graphically from a log-logit plot of the data. The Kd values were determined by application of the Cheng-Prussof equation to the IC50 values, the labeled ligand concentration and the Kd of the labeled ligand.

RARβ = target: T2, RARβ (Homo sapiens, UniProt P10826); assay: co-transfection assay, agonist activity on RARβ; type: cell-based; parameters: expressed in transfected cells; host or cells: CV-1 cells (African green monkey kidney); details: CV-1 cells; read-out: EC50 agonist potency, RARβ
T2 sequence (P10826 1-448 isoform P10826-2): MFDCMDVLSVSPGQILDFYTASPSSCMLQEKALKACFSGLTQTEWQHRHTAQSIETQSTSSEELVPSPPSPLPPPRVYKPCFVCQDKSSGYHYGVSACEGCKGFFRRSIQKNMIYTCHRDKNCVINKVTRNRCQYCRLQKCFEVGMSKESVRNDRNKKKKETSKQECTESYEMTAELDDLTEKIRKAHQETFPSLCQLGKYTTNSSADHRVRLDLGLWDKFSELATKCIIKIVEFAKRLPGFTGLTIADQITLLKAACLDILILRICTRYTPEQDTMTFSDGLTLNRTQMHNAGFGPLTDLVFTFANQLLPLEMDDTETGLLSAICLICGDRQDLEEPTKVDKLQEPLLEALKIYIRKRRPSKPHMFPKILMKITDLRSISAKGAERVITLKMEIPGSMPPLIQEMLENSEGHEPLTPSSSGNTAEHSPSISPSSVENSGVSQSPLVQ
From the text: (§1) This assay is described in further detail in U.S. Pat. Nos. 4,981,784 and 5,071,773, the disclosures of which are incorporated herein by reference.
(§2) In the co-transfection assay, a cloned cDNA for an IR (e.g., human RARα:, RARβ, RXRγ) under the control of a constitutive promoter (e.g., the SV 40 promoter) is introduced by transfection (a procedure to induce cells to take up foreign genes) into a background cell substantially devoid of endogenous IRs. This introduced gene directs the recipient cells to make the IR protein of interest. A second gene is also introduced (co-transfected) into the same cells in conjunction with the IR gene. This second gene, comprising the cDNA for a reporter protein, such as firefly luciferase (LUC), is controlled by an appropriate hormone responsive promoter containing a hormone response element (HRE). This reporter plasmid functions as a reporter for the transcription-modulating activity of the target IR. Thus, the reporter acts as a surrogate for the products (mRNA then protein) normally expressed by a gene under control of the target receptor and its native hormone.
(§3) The co-transfection assay can detect small molecule agonists or antagonists of target IRs. Exposing the transfected cells to an agonist ligand compound increases reporter activity in the transfected cells. This activity can be conveniently measured, e.g., by increasing luciferase production, which reflects compound-dependent, IR-mediated increases in reporter transcription. To detect antagonists, the co-transfection assay is carried out in the presence of a constant concentration of an agonist to the target IR (e.g., all-trans retinoic acid for RARα) known to induce a defined reporter signal. Increasing concentrations of a suspected antagonist will decrease the reporter signal (e.g., luciferase production). The co-transfection assay is therefore useful to detect both agonists and antagonists of specific IRs. Furthermore, it determines not only whether a compound interacts with a particular IR, but whether this interaction mimics (agonizes) or blocks (antagonizes) the effects of the native regulatory molecules on target gene expression, as well as the specificity and strength of this interaction.
(§4) CV-1 cells (African green monkey kidney fibroblasts) were cultured in the presence of Dulbecco's Modified Eagle Medium (DMEM) supplemented with 10% charcoal resin-stripped fetal bovine serum then transferred to 96-well microtiter plates one day prior to transfection. […]

RARγ [2] = target: T1, RARγ; assay: co-transfection assay, agonist activity on RARγ; type: cell-based; parameters: expressed in transfected cells; host or cells: CV-1 cells (African green monkey kidney); details: CV-1 cells; read-out: EC50 agonist potency, RARγ
From the text: as §1, §2, §3, §4

Structure (SMILES)	Kd (RARγ [1]) [µM]	EC50 (RARβ) [µM]	EC50 (RARγ [2]) [µM]
CCCOc1c(C(C)(C)C)cc(/C(C)=C/C=C/C(C)=C/C(=O)O)cc1C(C)(C)C [Compound 8, 2E, 4E, 6E-[7-(3,5-Di-t-butyl-4-n-propoxyphenyl)-3-methyl]-octa-2,4,6-trienoic acid]	0.004	> 10	> 10
C=C(c1ccccc1)c1cc(/C(C)=C/C=C/C(C)=C/C(=O)O)cc(C(C)(C)C)c1 [Compound 17, (2E,4E,6E)-7-[3-t-butyl-5-(1-phenyl-vinyl)-phenyl]-3-methyl-octa-2,4,6-trienoic acid]	0.014	> 10	> 10
CCCCCOc1c(C(C)(C)C)cc(/C(C)=C/C=C/C(C)=C/C(=O)O)cc1C(C)(C)C [Compound 9, 2E, 4E, 6E-[7-(3,5-Di-t-butyl-4-n-pentoxyphenyl)-3-methyl]-octa-2,4,6-trienoic acid]	0.014	> 10	> 10
CCCCOc1c(C(C)(C)C)cc(/C(C)=C/C=C/C(C)=C/C(=O)O)cc1C(C)(C)C [Compound 7, 2E, 4E, 6E-[7-(3,5-Di-t-butyl-4-n-butoxyphenyl)-3-methyl]-octa-2,4,6-trienoic acid]	0.017	> 10	> 10
